# Laboratory results published in patent US20050112183A1, “Compositions and methods for treating neuropathic sensory loss” (priority 2003, published 2005).
# System: neuropathically induced negative sensory phenomena (NSP)
# Experiment: application of local anesthetic to diabetic neuropathy patients, patient-reported
# Format: in vivo
# Settings: some diabetic neuropathy patients; local application of the anesthetic
# Excerpt: It has previously been assumed that positive sensory phenomena (“PSP”) is caused by an increase in spontaneous nerve discharge from damaged and dysfunctional peripheral nerves. […] Based on the current understanding of the underlying etiology of NSP it would be unexpected that an anesthetic would effectively mitigate the negative effects of NSP. It has now been found, however, that the application of local anesthetics such as lidocaine can effectively treat NSP. For example, some diabetic neuropathy patients reported both pain relief and improved NSP, that is, the patients experienced pain relief, improvement of sensory loss (decreased numbness), and improved tactile response (they could better feel objects touching their skin). Thus the anesthetic as applied in this embodiment decreased numbness. This is contrary to all prior teachings about anesthetics.
compound,measurement,value
"CCN(CC)CC(=O)Nc1c(C)cccc1C [lidocaine, 2-(diethylamino)-N-(2,6-dimethylphenyl)-acetamide]","negative sensory phenomena (NSP: numbness, sensory loss, tactile response) as reported by patients",improved NSP
same,pain as reported by patients,pain relief
